In ChEMBL document CHEMBL3217612, “Progress on lamellarins” (Medchemcomm, 2011):

What was measured:
[1] = system: HL-60; experiment: Cytotoxicity against human HL60 cells after 48 hrs by XTT assay; format: functional, cell-based; conditions: HL-60, 48 h
[2] = system: A549; experiment: Cytotoxicity against human A549 cells after 48 hrs by XTT assay; format: functional, cell-based; conditions: A549, 48 h
[3] = system: MRC5; experiment: Cytotoxicity against human MRC5 cells after 48 hrs by XTT assay; format: cell-based; conditions: MRC5, 48 h
[4] = system: P388; experiment: Cytotoxicity against mouse P388 cells after 48 hrs by XTT assay; format: functional, cell-based; conditions: P388, 48 h
[5] = system: HeLa; experiment: Cytotoxicity against human HeLa cells after 48 hrs by XTT assay; format: functional, cell-based
[6] = system: HepG2; experiment: Cytotoxicity against human HepG2 cells after 48 hrs by XTT assay; format: functional, cell-based; conditions: HepG2, 48 h
[7] = Cytotoxicity against human HCC-S102 cells after 48 hrs by XTT assay; format: functional, cell-based; conditions: HCC-S102, 48 h
[8] = system: MDA-MB-231; experiment: Cytotoxicity against human MDA-MB-231 cells after 48 hrs by XTT assay; format: functional, cell-based; conditions: MDA-MB-231, 48 h
[9] = Cytotoxicity against human HuCCa1 cells after 48 hrs by XTT assay; format: functional, cell-based; conditions: HuCC-A1, 48 h
[10] = system: KB; experiment: Cytotoxicity against human KB cells after 48 hrs by XTT assay; format: functional, cell-based
[11] = system: T47D; experiment: Cytotoxicity against human T47D cells after 48 hrs by XTT assay; format: functional, cell-based
[12] = system: H69AR; experiment: Cytotoxicity against human H69AR cells after 48 hrs by XTT assay; format: functional, cell-based
[13] = Cytotoxicity against human MOLT3 cells after 48 hrs by XTT assay; format: functional, cell-based; conditions: MOLT-3, 48 h

Compound | IC50 [1] [nM] | IC50 [2] [nM] | IC50 [3] [nM] | IC50 [4] [nM] | IC50 [5] [nM] | IC50 [6] [nM] | IC50 [7] [nM] | IC50 [8] [nM] | IC50 [9] [nM] | IC50 [10] [nM] | IC50 [11] [nM] | IC50 [12] [nM] | IC50 [13] [nM]
COc1ccc(-c2c3c4cc(OC)c(O)cc4oc(=O)c3n3ccc4cc(O)c(OC)cc4c23)cc1O | 40 | 40 | > 100000 | 80 | 40 | 20 | 2300 | 600 | 8 | 60 | 0.6 | 60 | 
COc1cc(-c2c3c4cc(OC)c(O)cc4[nH]c(=O)c3n3ccc4cc(O)c(OC)cc4c23)ccc1O |  | 740 |  |  |  | 130 |  |  | 120 |  |  |  | 30
COc1cc2c(cc1O)oc(=O)c1c2c(-c2ccc(OC)c(OC)c2)c2c3cc(OC)c(O)cc3ccn21 | 40 | 40 | > 97400 | 80 | 80 | 10 | 2100 | 400 | 6 | 80 | 0.1 | 300 | 
COc1cc(-c2c3c4cc(OC)c(O)cc4oc(=O)c3n3ccc4c(O)c(OC)c(OC)cc4c23)ccc1O | 60 | 40 | 13400 | 100 | 300 | 20 | 1900 | 100 | 60 | 200 | 9 | 300 | 
COc1ccc(-c2c3c4cc(OC)c(O)cc4oc(=O)c3n3ccc4c(O)c(OC)c(OC)cc4c23)cc1O | 200 | 300 | 10100 | 300 | 90 | 200 | 1600 | 80 | 40 | 80 | 6 | 300 | 
COc1cc2c(cc1O)oc(=O)c1c2c(-c2ccc(OC)c(OC)c2)c2c3cc(OC)c(OC)c(O)c3ccn21 | 100 | 300 | 25800 | 300 | 300 | 100 | 2100 | 300 | 70 | 300 | 6 | 2300 | 
COc1cc(-c2c3c4cc(OC)c(O)cc4oc(=O)c3n3ccc4cc(O)c(OC)cc4c23)ccc1O [LAMELLARIN D] | 40 | 60 | 9200 | 100 | 60 | 20 | 3200 | 400 | 80 | 40 | 0.08 | 400 | 49
